Laboratory results published in the supplement of paper PMC10307832.

Columns and labels:
Test in all cases: relative viability (nuclei count vs DMSO), 5 days (fraction); higher = more cells survive
Afatinib + Luminespib = compound: CN(C)C/C=C/C(=O)Nc1cc2c(Nc3ccc(F)c(Cl)c3)ncnc2cc1O[C@H]1CCOC1 [Afatinib] + CCNC(=O)c1noc(-c2cc(C(C)C)c(O)cc2O)c1-c1ccc(CN2CCOCC2)cc1 [Luminespib] (partner 0.01 µM)
Method in brief: (§1)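 For relative viability, nuclei counts in treated wells were divided by those in vehicle wells. Lung cancer cell lines had been pin-tool dosed in 1536-well plates the day after seeding and cultured for 5 days, then fixed and stained in one step (final 0.05% Triton X-100, 1% formaldehyde, 1 ug/ml Hoechst) and imaged at 4×. Doses were one drug alone or a fixed anchor-drug dose plus five library-drug doses (not always all listed) in √10 steps, and values are duplicate-plate medians.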

Afatinib + OSI-027 = compound: CN(C)C/C=C/C(=O)Nc1cc2c(Nc3ccc(F)c(Cl)c3)ncnc2cc1O[C@H]1CCOC1 [Afatinib] + COc1cccc2cc(-c3nc([C@H]4CC[C@H](C(=O)O)CC4)n4ncnc(N)c34)[nH]c12 [OSI-027] (partner 0.5 µM)
Method in brief: as §1

Afatinib + Lapatinib = compound: CN(C)C/C=C/C(=O)Nc1cc2c(Nc3ccc(F)c(Cl)c3)ncnc2cc1O[C@H]1CCOC1 [Afatinib] + CS(=O)(=O)CCNCc1ccc(-c2ccc3ncnc(Nc4ccc(OCc5cccc(F)c5)c(Cl)c4)c3c2)o1 [Lapatinib] (partner 2 µM)
Method in brief: as §1

Afatinib + Linsitinib = compound: CN(C)C/C=C/C(=O)Nc1cc2c(Nc3ccc(F)c(Cl)c3)ncnc2cc1O[C@H]1CCOC1 [Afatinib] + C[C@]1(O)C[C@@H](c2nc(-c3ccc4ccc(-c5ccccc5)nc4c3)c3c(N)nccn32)C1 [Linsitinib] (partner 1 µM)
Method in brief: as §1

Cell Line	relative viability (Afatinib + Luminespib; first compound 0.005 µM)	relative viability (Afatinib + Luminespib; first compound 0.01581 µM)	relative viability (Afatinib + Luminespib; first compound 0.05 µM)	relative viability (Afatinib + Luminespib; first compound 0.1581 µM)	relative viability (Afatinib + Luminespib; first compound 0.5 µM)	relative viability (Afatinib + OSI-027; first compound 0.005 µM)	relative viability (Afatinib + OSI-027; first compound 0.01581 µM)	relative viability (Afatinib + OSI-027; first compound 0.05 µM)	relative viability (Afatinib + OSI-027; first compound 0.1581 µM)	relative viability (Afatinib + OSI-027; first compound 0.5 µM)	relative viability (Afatinib + Lapatinib; first compound 0.005 µM)	relative viability (Afatinib + Lapatinib; first compound 0.01581 µM)	relative viability (Afatinib + Lapatinib; first compound 0.05 µM)	relative viability (Afatinib + Lapatinib; first compound 0.1581 µM)	relative viability (Afatinib + Lapatinib; first compound 0.5 µM)	relative viability (Afatinib + Linsitinib; first compound 0.005 µM)	relative viability (Afatinib + Linsitinib; first compound 0.01581 µM)	relative viability (Afatinib + Linsitinib; first compound 0.05 µM)	relative viability (Afatinib + Linsitinib; first compound 0.1581 µM)	relative viability (Afatinib + Linsitinib; first compound 0.5 µM)
NCI-H2087	0.178	0.163	0.21	0.167	0.161	0.731	0.507	0.652	0.753	0.383	0.973	1.07	1.09	0.946	0.929	0.985	0.916	1.01	0.918	0.986
NCI-H2228	0.141	0.127	0.136	0.132	0.143	0.546	0.418	0.589	0.638	0.545	1.29	1.01	0.958	–	1.03	0.604	0.778	0.631	–	0.502
NCI-H727	0.404	–	0.416	0.282	0.345	0.699	0.447	0.511	0.49	0.56	0.892	0.861	0.894	0.639	0.948	0.282	0.307	0.284	0.267	0.28
NCI-H650	0.841	0.816	0.791	0.814	0.788	0.557	0.475	0.566	0.516	0.503	1.01	0.844	1.19	1.21	0.684	0.872	0.706	1.03	0.999	0.697
NCI-H520	0.21	0.264	0.223	0.215	0.234	0.357	0.198	0.201	0.261	0.234	0.857	0.78	0.918	0.903	0.687	0.983	0.998	0.992	0.931	0.802
EBC-1	–	–	–	–	–	–	–	–	–	–	0.246	0.196	0.198	0.195	0.212	0.72	0.827	0.903	0.783	0.903
NCI-H661	0.994	0.895	0.867	0.674	0.629	0.558	0.458	0.528	0.386	0.367	0.682	0.469	0.573	0.454	0.443	0.669	0.531	0.516	0.375	0.294
NCI-H1299	–	–	–	–	–	–	–	–	–	–	0.98	0.946	0.973	0.969	0.96	0.978	0.951	0.987	1.06	0.97
LK-2	0.191	0.185	0.185	0.188	0.192	0.213	0.188	0.194	0.156	0.216	1.13	0.787	0.846	0.851	1.01	0.6	0.589	0.742	0.478	0.666
NCI-H1993	0.752	0.557	0.58	0.549	0.571	0.519	0.588	0.674	0.697	0.564	0.835	0.848	1.11	1.01	0.848	0.714	0.736	0.803	0.822	0.696
NCI-H838	0.346	0.291	0.272	0.217	0.248	0.445	0.353	0.371	0.365	0.363	0.986	0.953	1.07	1.08	1.06	1.04	0.949	1.07	0.952	1.06
NCI-H2170	0.831	0.671	0.449	0.163	0.231	0.67	0.5	0.293	0.192	0.191	0.297	0.283	0.268	0.269	0.315	–	–	–	–	–
NCI-H1648	–	–	–	–	–	0.253	0.266	0.298	0.219	0.27	–	–	–	–	–	–	–	–	–	–
LCLC-103H	0.779	1.04	0.968	0.784	0.917	0.48	0.46	0.54	0.482	0.479	–	–	–	–	–	1.09	0.943	1.02	0.99	0.99
NCI-H441	0.442	0.431	0.325	0.249	0.222	0.677	0.582	0.499	0.481	0.426	–	–	–	–	–	0.529	0.523	0.516	0.503	0.425
NCI-H1650	0.181	–	0.188	0.164	0.224	0.476	–	0.557	0.439	0.397	0.903	–	1.09	0.772	0.598	–	–	–	–	–
SW 900	0.182	0.198	–	0.187	0.173	0.668	0.395	0.605	0.639	0.347	–	–	–	–	–	–	–	–	–	–
IA-LM	–	–	–	–	–	–	–	–	–	–	0.935	0.867	0.753	0.828	0.708	0.67	0.713	0.502	0.571	0.601
HCC-366	–	–	–	–	–	0.947	0.965	0.969	0.824	0.788	1.03	1.06	1.03	1.05	1.02	0.764	0.669	0.56	0.541	0.618
NCI-H522	1.25	1.19	0.978	0.923	1	0.723	0.594	0.631	0.544	0.557	–	–	–	–	–	–	–	–	–	–
HCC-78	–	–	–	–	–	0.443	0.326	0.331	0.317	0.283	0.838	0.661	0.844	0.659	0.883	0.53	0.482	0.436	0.413	0.395
